# Source: article PMC4549708, “Inhibition of neuraminidase by Ganoderma triterpenoids and implications for neuraminidase inhibitor design” (Scientific Reports, 2015)
# Tests used:
# in vitro = conditions: human
# NA (H7N9) = format: biochemical; conditions: 200 µM
# NA (H1N1,09) = NA (H1N1,09) (Influenza A virus, UniProt C3W5S3); assay: biochemical; conditions: for inhibition at 200 µM / Inhibition rate (%) NA(H1N1,09): 200 μM of each compound, n = 3, means ± standard deviation; for inhibition at 200 µM: read-out: Inhibition rate (%) NA(H1N1,09); for IC50: in vitro NA inhibition assay (n = 3)
# NA (H5N1) = NA (H5N1) (Influenza A virus, UniProt K0C216); assay: biochemical; conditions: for inhibition at 200 µM: read-out: Inhibition rate (%) NA (H5N1); for Inhibition rate (%) NA (H5N1): 200 µM
Molecule,CC50 (in vitro),Inhibition rate (%) NA(H7N9) (NA (H7N9)),"inhibition at 200 µM (NA (H1N1,09))",inhibition at 200 µM (NA (H5N1)),"Inhibition rate (%) NA(H1N1,09) (NA (H1N1,09))",IC50 (NA (H5N1)),Inhibition rate (%) NA (H5N1) (NA (H5N1)),CC50 (MCF7 cells),"IC50 (NA (H1N1,09))"
"C/C(=C\C(=O)CC(C)C(=O)O)[C@H]1CC(=O)[C@@]2(C)C3=C(C(=O)C[C@]12C)[C@@]1(C)CC[C@H](O)C(C)(C)[C@@H]1CC3=O (stereo partly shown) [Compound 12, Ganoderenic acid H]",> 200 µM,38.6 ± 6.2%,58 ± 3%,77.7 ± 3.9%,,,,,
"C/C(C=O)=C\CC[C@@H](C)[C@H]1CC[C@@]2(C)C3=CC[C@H]4C(C)(C)[C@@H](O)CC[C@]4(C)C3=CC[C@]12C [Compound 30, Lucialdehyde A]",,24.5 ± 1.6%,,,57.6 ± 1.7%,164 ± 18 µM,67.1 ± 5.7%,34.7 ± 5.5 µM,
"C/C(=C\CC[C@@H](C)[C@H]1CC[C@@]2(C)C3=CC[C@H]4C(C)(C)[C@@H](O)CC[C@]4(C)C3=CC[C@]12C)C(=O)O [Compound 6, Ganoderic acid Y]",18 ± 1.3 µM,17.8 ± 1.5%,63 ± 2.5%,78.2 ± 3.2%,,,,,
"C/C(=C\C(=O)CC(C)C(=O)O)[C@H]1C[C@H](O)[C@@]2(C)C3=C(C(=O)C[C@]12C)[C@@]1(C)CCC(=O)C(C)(C)[C@@H]1C[C@@H]3O (stereo partly shown) [Compound 8, Ganoderenic acid A]",> 200 µM,23.3 ± 3.1%,35.3 ± 3.7%,35.9 ± 7.7%,,,,,
"C[C@H](CC(=O)C[C@@H](C)[C@H]1CC(=O)[C@@]2(C)C3=C(C(=O)C[C@]12C)[C@@]1(C)CCC(=O)C(C)(C)[C@@H]1C[C@@H]3O)C(=O)O [Compound 19, Ganoderic acid C1]",> 200 µM,26.2 ± 4.1%,21.1 ± 4.1%,43.3 ± 6.1%,,,,,
"C/C(=C/CC[C@@H](C)[C@H]1CC[C@@]2(C)C3=CC[C@H]4C(C)(C)C(=O)CC[C@]4(C)C3=CC[C@]12C)C(=O)O [Compound 4, Ganoderic acid Sz]",,17.8 ± 4.0%,,,60.1 ± 4.8%,,0.0%,50.6 ± 0.1 µM,101 ± 35.9 µM
"C[C@H](CC[C@H](O)C(C)(C)O)[C@H]1CC[C@@]2(C)C3=CC[C@H]4C(C)(C)C(=O)CC[C@]4(C)C3=CC[C@]12C [Compound 28, Ganodermanondiol]",64.9 ± 10 µM,24.3 ± 1.7%,,87.9 ± 1.8%,,,,,
"CC(=O)O[C@@H]1C(=O)C2=C(C(=O)C[C@H]3C(C)(C)[C@@H](O)CC[C@]23C)[C@]2(C)C(=O)C[C@H]([C@H](C)CC(=O)CC(C)C(=O)O)[C@@]12C (stereo partly shown) [Compound 13, Ganoderic acid H]",> 200 µM,27.2 ± 3.2%,35 ± 4.5%,64.1 ± 4.5%,,,,,
"CC(CC(=O)C[C@@H](C)[C@H]1CC(=O)[C@@]2(C)C3=C(C(=O)C[C@]12C)[C@@]1(C)CC[C@H](O)C(C)(C)[C@@H]1C[C@@H]3O)C(=O)O (stereo partly shown) [Compound 14, Ganoderic acid B]",> 200 µM,5.5 ± 0.4%,6.9 ± 6.8%,3 ± 1%,,,,,
Ganoderenic acid D [Compound 17],,35.9 ± 2.8%,,,50.4 ± 3.0%,123 ± 22.5 µM,74.2 ± 2.2%,> 200 µM,
"C/C(C=O)=C\CC[C@@H](C)[C@H]1CC[C@@]2(C)C3=C(CC[C@]12C)[C@@]1(C)CCC(=O)C(C)(C)[C@@H]1CC3=O [Compound 31, Lucialdehyde B]",7.1 ± 0.3 µM,30.4 ± 3.5%,51.4 ± 2.5%,86.7 ± 0.8%,,,,,
"C/C(=C/CC[C@@H](C)[C@H]1CC[C@@]2(C)C3=CC[C@H]4C(C)(C)C(=O)CC[C@]4(C)C3=CC[C@]12C)C(=O)O [Compound 5, Ganoderic acid S]",80.9 ± 6.8 µM,31.9 ± 2.3%,69.4 ± 2.3%,86.7 ± 0.5%,,,,,80.5 ± 24.9 µM
"C/C(=C\CC[C@@H](C)[C@H]1CC[C@@]2(C)C3=C(CC[C@]12C)[C@@]1(C)CCC(=O)C(C)(C)[C@@H]1CC3=O)C(=O)O [Compound 20, Ganoderic acid DM]",> 200 µM,29.4 ± 3.8%,50.4 ± 1.5%,55.2 ± 0.7%,,,,,
"CC(CC(=O)C[C@@H](C)[C@H]1C[C@H](O)[C@@]2(C)C3=C(C(=O)C[C@]12C)[C@@]1(C)CCC(=O)C(C)(C)[C@@H]1CC3)C(=O)O (stereo partly shown) [Compound 21, Ganolucidic acid A]",> 200 µM,16.7 ± 3.4%,19.4 ± 2.7%,49.8 ± 7.7%,,,,,
"C[C@H](CC(=O)C[C@@H](C)[C@H]1C[C@H](O)[C@@]2(C)C3=C(C(=O)C[C@]12C)[C@@]1(C)CCC(=O)C(C)(C)[C@@H]1C[C@@H]3O)C(=O)O [Compound 7, Ganoderic acid A]",> 200 µM,6.3 ± 2.2%,5 ± 5.4%,31.4 ± 7.3%,,,,,
"CC(CC(=O)C[C@@H](C)[C@H]1CC(=O)[C@@]2(C)C3=C(C(=O)[C@@H](O)[C@]12C)[C@@]1(C)CC[C@H](O)C(C)(C)[C@@H]1CC3=O)C(=O)O (stereo partly shown) [Compound 18, Ganoderic acid C6]",> 200 µM,25.7 ± 1.3%,17.8 ± 1.2%,15.6 ± 22.3%,,,,,
"C/C(=C\C(=O)CC(C)C(=O)O)C1CC(O)C2(C)C3=C(C(=O)CC12C)C1(C)CCC(O)C(C)(C)C1CC3O (stereo not shown) [Compound 16, Ganoderenic acid C]",,27.2 ± 0.5%,,,27.9 ± 0.3%,,30.6 ± 4.5%,> 200 µM,
"C/C(=C\[C@@H](O)C[C@@H](C)[C@H]1CC(=O)[C@@]2(C)C3=C(C(=O)C[C@]12C)[C@@]1(C)CCC(=O)C(C)(C)[C@@H]1C[C@@H]3O)C(=O)O [Compound 23, Ganoderic acid LM2]",> 200 µM,12.7 ± 9.6%,40.9 ± 6.2%,67.1 ± 5.2%,,,,,
"CC(=O)O[C@@H]1C(=O)C2=C(C(=O)C[C@H]3C(C)(C)C(=O)CC[C@]23C)[C@]2(C)C(=O)C[C@H]([C@H](C)CC(=O)CC(C)C(=O)O)[C@@]12C (stereo partly shown) [Compound 24, Ganoderic acid F]",> 200 µM,14.8 ± 2.6%,12.9 ± 11.4%,48.6 ± 7.4%,,,,,
"C/C(=C\CC[C@@H](C)[C@H]1CC[C@@]2(C)C3=CC[C@H]4C(C)(C)[C@@H](O)CC[C@]4(C)C3=CC[C@]12C)CO [Compound 26, Ganoderol B]",> 200 µM,21.8 ± 3.5%,51 ± 2.6%,71.6 ± 2.1%,,,,,
"CC(=O)O[C@H]1C[C@H]([C@H](C)CC/C=C(\C)C(=O)O)[C@@]2(C)CC=C3C(=CC[C@H]4C(C)(C)[C@@H](O)CC[C@]34C)[C@]12C [Compound 3, Ganoderic acid T-N]",,25.6 ± 1.6%,,,72.0 ± 5.5%,2.7 ± 0.4 µM,91.1 ± 0.8%,24.4 ± 2.4 µM,42 ± 13.5 µM
"C/C(=C\[C@@H](O)C[C@@H](C)[C@H]1CC(=O)[C@@]2(C)C3=C(C(=O)C[C@]12C)[C@@]1(C)CC[C@H](O)C(C)(C)[C@@H]1CC3=O)C(=O)O [Compound 22, Ganoderic acid Zeta]",,17.7 ± 2.4%,,,35.9 ± 5.3%,,0.0%,> 200 µM,
"C/C(=C\C(=O)CC(C)C(=O)O)[C@H]1CC(=O)[C@@]2(C)C3=C(C(=O)C[C@]12C)[C@@]1(C)CCC(=O)C(C)(C)[C@@H]1CC3=O (stereo partly shown) [Compound 15, Ganoderenic acid F]",111 ± 17.9 µM,34.2 ± 4.7%,53.1 ± 1.6%,62.8 ± 4%,,,,,
"C[C@H](CCC=C(CO)CO)[C@H]1CC[C@@]2(C)C3=CC[C@H]4C(C)(C)C(=O)CC[C@]4(C)C3=CC[C@]12C [Compound 27, Ganoderiol F]",> 200 µM,29.5 ± 4.3%,52.9 ± 2%,33.6 ± 12.1%,,,,,
"C/C(=C\CC[C@@H](C)[C@H]1CC[C@@]2(C)C3=CC[C@H]4C(C)(C)C(=O)CC[C@]4(C)C3=CC[C@]12C)CO [Compound 25, Ganoderol A]",20.4 ± 0.9 µM,15.9 ± 3.7%,48.3 ± 2.2%,77.1 ± 0.4%,,,,,
"CC(=O)O[C@@H]1C(=O)C2=C([C@@H](O)C[C@H]3C(C)(C)[C@@H](O)CC[C@]23C)[C@]2(C)C(=O)C[C@H]([C@H](C)CC(=O)CC(C)C(=O)O)[C@@]12C (stereo partly shown) [Compound 11, Ganoderic acid K]",> 200 µM,28.5 ± 1.9%,28.8 ± 2%,57.7 ± 10.9%,,,,,
"C[C@H](CC[C@H](O)[C@](C)(O)CO)[C@H]1CC[C@@]2(C)C3=CC[C@H]4C(C)(C)C(=O)CC[C@]4(C)C3=CC[C@]12C [Compound 29, Ganodermanontriol]",> 200 µM,10.3 ± 3.5%,35.3 ± 5.2%,60.5 ± 6.8%,,,,,
"CC(CC(=O)C[C@@H](C)[C@H]1CC(=O)[C@@]2(C)C3=C(C(=O)C[C@]12C)[C@@]1(C)CC[C@H](O)C(C)(C)[C@@H]1CC3=O)C(=O)O (stereo partly shown) [Compound 10, Ganoderic acid AM1]",> 200 µM,14.1 ± 5.1%,28.3 ± 6.2%,75.2 ± 2.3%,,,,,
"C[C@H](CC(=O)C[C@@H](C)[C@H]1C[C@H](O)[C@@]2(C)C3=C(C(=O)C[C@]12C)[C@@]1(C)CC[C@H](O)C(C)(C)[C@@H]1C[C@@H]3O)C(=O)O [Compound 9, Ganoderic acid C2]",> 200 µM,27.5 ± 2.3%,32.4 ± 4.5%,60.8 ± 4.3%,,,,,
